Reference: patent publication US11331369B2, “Endoparasitic depsipeptides” (Zoetis Services LLC, priority 2017, dated 2022)

Key:
Format in all cases: cell-based
[1] = system: third stage larvae of Haemonchus contortus; assay: Haemonchus contortus L3 (HcL3) Assay; conditions: 96 h, read-out: HcL3 Minimum Effective Dose (MED)
[2] = system: 4th stage larvae (L4) of Dirofilaria immitis; assay: Dirofilaria immitis, L4 Stage (DiL4) In Vitro Assay; conditions: Dirofilaria immitis, 72 h, read-out: DiL4 Minimum Effective Dose (MED), approximately 72 hours incubation; L4 larvae assessed for survival or paralysis
[3] = system: microfilariae of Dirofilaria immitis; assay: Dirofilaria immitis, Microfilaria (DiMF) In vitro Assay; conditions: 72 h, read-out: DiMF Minimum Effective Dose (MED), approximately 72 hours incubation, microfilariae assessed for survival or paralysis

Structure (SMILES)	minimal effective concentration [1] [µM]	minimal effective concentration [2] [µM]	minimal effective concentration [3] [µM]
COc1ccc(-c2ccnn2Cc2ccc(C[C@H]3OC(=O)[C@H](CC(C)C)N(C)C(=O)[C@@H](C)OC(=O)[C@H](CC(C)C)N(C)C(=O)[C@@H](Cc4ccc(Cn5nccc5-c5ccc(OC)nc5)cc4)OC(=O)[C@H](CC(C)C)N(C)C(=O)[C@@H](C)OC(=O)[C@H](CC(C)C)N(C)C3=O)cc2)cn1 [Example 1b-190, (3S,6R,9S,12R,15S,18R,21S,24R)-3,9,15,21-tetraisobutyl-6,18-bis(4-((5-(6-methoxypyridin-3-yl)-1H-pyrazol-1-yl)methyl)benzyl)-4,10,12,16,22,24-hexamethyl-1,7,13,19-tetraoxa-4,10,16,22-tetraazacyclotetracosan-2,5,8,11,14,17,20,23-octaone]	1 to 10	0.0001 to 0.001	0.001 to 0.01
CCOc1cnn(Cc2ccc(C[C@H]3OC(=O)[C@H](CC(C)C)N(C)C(=O)[C@@H](C)OC(=O)[C@H](CC(C)C)N(C)C(=O)[C@@H](Cc4ccc(Cn5ncc(OCC)c5C)cc4)OC(=O)[C@H](CC(C)C)N(C)C(=O)[C@@H](C)OC(=O)[C@H](CC(C)C)N(C)C3=O)cc2)c1C [Example 1b-197, (3S,6R,9S,12R,15S,18R,21S,24R)-6,18-bis[[4-[(4-ethoxy-5-methyl-pyrazol-1-yl)methyl]phenyl]methyl]-3,9,15,21-tetraisobutyl-4,10,12,16,22,24-hexamethyl-1,7,13,19-tetraoxa-4,10,16,22-tetrazacyclotetracosane-2,5,8,11,14,17,20,23-octaone]	1 to 10	0.001 to 0.01	0.001 to 0.01
COCOc1cnn(Cc2ccc(C[C@H]3OC(=O)[C@H](CC(C)C)N(C)C(=O)[C@@H](C)OC(=O)[C@H](CC(C)C)N(C)C(=O)[C@@H](Cc4ccc(Cn5cc(OCOC)cn5)cc4)OC(=O)[C@H](CC(C)C)N(C)C(=O)[C@@H](C)OC(=O)[C@H](CC(C)C)N(C)C3=O)cc2)c1 [Example 1b-201, (3S,6R,9S,12R,15S,18R,21S,24R)-3,9,15,21-tetraisobutyl-6,18-bis[[4-[[4-(methoxymethoxy)pyrazol-1-yl]methyl]phenyl]methyl]-4, 10,12,16,22,24-hexamethyl-1,7,13,19-tetraoxa-4,10,16,22-tetrazacyclotetracosane-2,5,8,11,14,17,20,23-octaone]	1 to 10	0.001 to 0.01	0.001 to 0.01
COCCOc1cnn(Cc2ccc(C[C@H]3OC(=O)[C@H](CC(C)C)N(C)C(=O)[C@@H](C)OC(=O)[C@H](CC(C)C)N(C)C(=O)[C@@H](Cc4ccc(Cn5cc(OCCOC)cn5)cc4)OC(=O)[C@H](CC(C)C)N(C)C(=O)[C@@H](C)OC(=O)[C@H](CC(C)C)N(C)C3=O)cc2)c1 [Example 1b-203, (3S,6R,9S,12R,15S,18R,21S,24R)-3,9,15,21-tetraisobutyl-6,18-bis[[4-[[4-(2-methoxyethoxy)pyrazol-1-yl]methyl]phenyl]methyl]-4,10,12,16,22,24-hexamethyl-1,7,13,19-tetraoxa-4,10,16,22-tetrazacyclotetracosane-2,5,8,11,14,17,20,23-octaone]	10 to 100	0.001 to 0.01	0.001 to 0.01
CC(C)C[C@H]1C(=O)O[C@H](Cc2ccc(Cn3nccc3CC3CC3)cc2)C(=O)N(C)[C@@H](CC(C)C)C(=O)O[C@H](C)C(=O)N(C)[C@@H](CC(C)C)C(=O)O[C@H](Cc2ccc(Cn3nccc3CC3CC3)cc2)C(=O)N(C)[C@@H](CC(C)C)C(=O)O[C@H](C)C(=O)N1C [Example 1b-206, (3S,6R,9S,12R,15S,18R,21S,24R)-6,18-bis(4-((5-(cyclopropylmethyl)-1H-pyrazol-1-yl)methyl)benzyl)-3,9,15,21-tetraisobutyl-4,10,12,16,22,24-hexamethyl-1,7,13,19-tetraoxa-4,10,16,22-tetraazacyclotetracosan-2,5,8,11,14,17,20,23-octaone]	≤ 1	0.0001 to 0.001	0.01 to 0.1
Cc1ncc(-c2ccnn2Cc2ccc(C[C@H]3OC(=O)[C@H](CC(C)C)N(C)C(=O)[C@@H](C)OC(=O)[C@H](CC(C)C)N(C)C(=O)[C@@H](Cc4ccc(Cn5nccc5-c5cnc(C)nc5)cc4)OC(=O)[C@H](CC(C)C)N(C)C(=O)[C@@H](C)OC(=O)[C@H](CC(C)C)N(C)C3=O)cc2)cn1 [Example 1b-207, (3S,6R,9S,12R,15S,18R,21S,24R)-3,9,15,21-tetraisobutyl-4,6,10,16,18,22-hexamethyl-12,24-bis(4-((5-(2-methylpyrimidin-5-yl)-1H-pyrazol-1-yl)methyl)benzyl)-1,7,13,19-tetraoxa-4,10,16,22-tetraazacyclotetracosan-2,5,8,11,14,17,20,23-octaone]	1 to 10	0.001 to 0.01	0.001 to 0.01
CCC(C)c1ccnn1Cc1ccc(C[C@H]2OC(=O)[C@H](CC(C)C)N(C)C(=O)[C@@H](C)OC(=O)[C@H](CC(C)C)N(C)C(=O)[C@@H](Cc3ccc(Cn4nccc4C(C)CC)cc3)OC(=O)[C@H](CC(C)C)N(C)C(=O)[C@@H](C)OC(=O)[C@H](CC(C)C)N(C)C2=O)cc1 (stereo partly drawn) [Example 1b-210, (3S,6R,9S,12R,15S,18R,21S,24R)-6,18-bis(4-((5-(sec-butyl)-1H-pyrazol-1-yl)methyl)benzyl)-3,9,15,21-tetraisobutyl-4,10,12,16,22,24-hexamethyl-1,7,13,19-tetraoxa-4,10,16,22-tetraazacyclotetracosan-2,5,8,11,14,17,20,23-octaone]	1 to 10	0.0001 to 0.001	0.01 to 0.1
CC(C)C[C@H]1C(=O)O[C@H](Cc2ccc(Cn3nccc3C3(F)CC3)cc2)C(=O)N(C)[C@@H](CC(C)C)C(=O)O[C@H](C)C(=O)N(C)[C@@H](CC(C)C)C(=O)O[C@H](Cc2ccc(Cn3nccc3C3(F)CC3)cc2)C(=O)N(C)[C@@H](CC(C)C)C(=O)O[C@H](C)C(=O)N1C [Example 1b-215, (3S,6R,9S,12R,15S,18R,21S,24R)-6,18-bis(4-((5-(1-fluorocyclopropyl)-1H-pyrazol-1-yl)methyl)benzyl)-3,9,15,21-tetraisobutyl-4,10,12,16,22,24-hexamethyl-1,7,13,19-tetraoxa-4,10,16,22-tetraazacyclotetracosan-2,5,8,11,14,17,20,23-octaone]	≤ 1	0.0001 to 0.001	0.001 to 0.01
CC(C)C[C@H]1C(=O)O[C@H](Cc2ccc(Cn3nccc3C3CC3(F)F)cc2)C(=O)N(C)[C@@H](CC(C)C)C(=O)O[C@H](C)C(=O)N(C)[C@@H](CC(C)C)C(=O)O[C@H](Cc2ccc(Cn3nccc3C3CC3(F)F)cc2)C(=O)N(C)[C@@H](CC(C)C)C(=O)O[C@H](C)C(=O)N1C (stereo partly drawn) [Example 1b-216, (3S,6R,9S,12R,15S,18R,21S,24R)-6,18-bis(4-((5-(2,2-difluorocyclopropyl)-1H-pyrazol-1-yl)methyl)benzyl)-3,9,15,21-tetraisobutyl-4,10,12,16,22,24-hexamethyl-1,7,13,19-tetraoxa-4,10,16,22-tetraazacyclotetracosan-2,5,8,11,14,17,20,23-octaone]	≤ 1	≤ 0.0001	0.001 to 0.01
CC(C)C[C@H]1C(=O)O[C@H](Cc2ccc(Cn3nccc3C3(Cl)CC3)cc2)C(=O)N(C)[C@@H](CC(C)C)C(=O)O[C@H](C)C(=O)N(C)[C@@H](CC(C)C)C(=O)O[C@H](Cc2ccc(Cn3nccc3C3(Cl)CC3)cc2)C(=O)N(C)[C@@H](CC(C)C)C(=O)O[C@H](C)C(=O)N1C [Example 1b-217, (3S,6R,9S,12R,15S,18R,21S,24R)-6,18-bis(4-((5-(1-chlorocyclopropyl)-1H-pyrazol-1-yl)methyl)benzyl)-3,9,15,21-tetraisobutyl-4,10,12,16,22,24-hexamethyl-1,7,13,19-tetraoxa-4,10,16,22-tetraazacyclotetracosan-2,5,8,11,14,17,20,23-octaone]	≤ 1	0.0001 to 0.001	0.01 to 0.1
CC(C)C[C@H]1C(=O)O[C@H](Cc2ccc(Cn3nccc3C3(C)CC3)cc2)C(=O)N(C)[C@@H](CC(C)C)C(=O)O[C@H](C)C(=O)N(C)[C@@H](CC(C)C)C(=O)O[C@H](Cc2ccc(Cn3nccc3C3(C)CC3)cc2)C(=O)N(C)[C@@H](CC(C)C)C(=O)O[C@H](C)C(=O)N1C [Example 1b-219, (3S,6R,9S,12R,15S,18R,21S,24R)-3,9,15,21-tetraisobutyl-4,6,10,16,18,22-hexamethyl-12,24-bis(4-((5-(1-methylcyclopropyl)-1H-pyrazol-1-yl)methyl)benzyl)-1,7,13,19-tetraoxa-4,10,16,22-tetraazacyclotetracosan-2,5,8,11,14,17,20,23-octaone]	≤ 1	0.0001 to 0.001	0.01 to 0.1
COC(C)(C)c1ccnn1Cc1ccc(C[C@H]2OC(=O)[C@H](CC(C)C)N(C)C(=O)[C@@H](C)OC(=O)[C@H](CC(C)C)N(C)C(=O)[C@@H](Cc3ccc(Cn4nccc4C(C)(C)OC)cc3)OC(=O)[C@H](CC(C)C)N(C)C(=O)[C@@H](C)OC(=O)[C@H](CC(C)C)N(C)C2=O)cc1 [Example 1b-220, (3S,6R,9S,12R,15S,18R,21S,24R)-3,9,15,21-tetraisobutyl-6,18-bis(4-((5-(2-methoxypropan-2-yl)-1H-pyrazol-1-yl)methyl)benzyl)-4,10,12,16,22,24-hexamethyl-1,7,13,19-tetraoxa-4,10,16,22-tetraazacyclotetracosan-2,5,8,11,14,17,20,23-octaone]	10 to 100	0.001 to 0.01	0.001 to 0.01
